“And” between values parts separate entries of the source, which are not always exact repeats. Equal values may be shown once.
Columns and labels:
JAK2 = JAK2 (Homo sapiens, UniProt O60674); assay: Z'LYTE JAK kinase inhibition assay, JAK2; type: biochemical; conditions: read-out: JAK Catalytic Selectivity (IC50) JAK2
[1] = test system: IFNα-induced TYK2-mediated IRF activity in Jurkat-Dual T cells; assay: Jurkat T cell reporter assay for IFNα-induced TYK2-mediated IRF activity; type: cell-based; conditions: Homo sapiens, SEAP
Text: Jurkat-Dual™ T cells (In vivogen, jktd-isnf) were purchased from In vivogen (San Diego, CA). The cells feature the dual-reporter system, with a Lucia luciferase gene driven by an interferon-β (IFN-β) minimal promoter fused to the NFκB consensus transcriptional response element and the c-Rel binding site, as well as a secreted embryonic alkaline phosphatase (SEAP) reporter gene under the control of an IFN-stimulated gene 54 (ISG54) minimal promoter in conjunction with five IFN-stimulated response elements. With the dual-reporter design, Jurkat-Dual™ cells allow the simultaneous investigation of both the NFκB pathway, by monitoring the Lucia luciferase, and the interferon regulatory factor (IRF) pathway, by assessing the activity of SEAP. In this study, the Jurkat-Dual™ T cells were plated at a sterilized U-shaped 96-well plate in RPMI (Thermo Fisher) containing 10% heat-inactivated Fetal Bovine Serum (FBS) (Thermo Fisher) and 100 U/mL Penicillin-Streptomycin (Thermo Fisher) at a density of 2.0 × 10^6/mL. Seeded cells were treated with serially diluted compounds and stimulated with 80 ng/mL human recombinant IFNα (Biolegend, # 592702) overnight in a humidified, 5% CO2 cell culture incubator at 37°C. Activity of SEAP was then detected from the cell cultured supernatant according to the manufacturer’s instructions.

JAK1 = JAK1 (Homo sapiens, UniProt P23458); assay: Z'LYTE JAK kinase inhibition assay, JAK1; type: biochemical; conditions: read-out: JAK Catalytic Selectivity (IC50) JAK1
CYP450 2D6 = CYP450 2D6 (Homo sapiens, UniProt P10635); assay: CYP450 inhibition, 2D6; type: in vitro ADME
TYK2 JH1 kinase domain = biological target: T1, TYK2 JH1 kinase domain (Homo sapiens, UniProt P29597); assay: KdELECT competition binding assay, TYK2 JH1; conditions: isolated TYK2 JH1 domain
T1 construct: purchased Eurofins DiscoverX Corporation (contract assay)
T1 sequence (P29597 897-1176 limits assumed): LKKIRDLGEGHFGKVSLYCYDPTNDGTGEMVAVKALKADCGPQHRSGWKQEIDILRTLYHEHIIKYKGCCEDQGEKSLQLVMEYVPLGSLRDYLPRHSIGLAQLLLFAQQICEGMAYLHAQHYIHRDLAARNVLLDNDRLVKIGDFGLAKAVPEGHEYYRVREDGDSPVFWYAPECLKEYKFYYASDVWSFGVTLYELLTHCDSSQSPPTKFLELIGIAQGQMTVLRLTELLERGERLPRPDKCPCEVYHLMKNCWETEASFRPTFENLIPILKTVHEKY
Description: (§1) The KdELECT competition assays were performed to test the binding affinity of compounds to the JH1 kinase region or JH2 pseudokinase region in TYK2 or JAK by ligand competition with JH1 or JH2 protein segments. The assay was carried out at Eurofins DiscoverX Corporation following the established standard protocol (DiscoverX, San Diego, CA). In this assay, compounds that bind to the kinase or pseudokinase protein regions prevent the protein binding to the immobilized ligand and reduce the amount of kinase matter captured on the solid surface. […] Dissociation constants (Kds) for test compound-kinase interactions are calculated by measuring the amount of kinase captured on the solid support as a function of the test compound concentration. […] The ligated beads were blocked with excess biotin and washed with blocking buffer to remove unbound ligand and to reduce nonspecific binding. […] All reactions were performed in polypropylene 384-well plates with a final volume of 20 μL. […] The beads were then re-suspended in the elution buffer and incubated at room temperature with shaking for 30 minutes. The kinase concentration in the eluant was measured by qPCR. Two replicates were performed and averaged to obtain the Kd measurement.

PPB, H = type: in vitro ADME; conditions: human, plasma
LM T1/2, M = type: in vitro ADME; conditions: mouse, liver microsomes
JAK3 JH1 kinase domain = biological target: T2, JAK3 JH1 kinase domain (Homo sapiens, UniProt P52333); assay: KdELECT competition binding assay, JAK3 JH1; conditions: read-out: JAK Binding Selectivity (Kd) Catalytical Domain (JH1) JAK3
T2 construct: purchased Eurofins DiscoverX Corporation (contract assay)
Description: as §1

JAK3 = biological target: T3, JAK3 (Homo sapiens, UniProt P52333); assay: Z'LYTE JAK kinase inhibition assay, JAK3; type: biochemical; conditions: read-out: JAK Catalytic Selectivity (IC50) JAK3
T3 sequence (P52333 1-1124): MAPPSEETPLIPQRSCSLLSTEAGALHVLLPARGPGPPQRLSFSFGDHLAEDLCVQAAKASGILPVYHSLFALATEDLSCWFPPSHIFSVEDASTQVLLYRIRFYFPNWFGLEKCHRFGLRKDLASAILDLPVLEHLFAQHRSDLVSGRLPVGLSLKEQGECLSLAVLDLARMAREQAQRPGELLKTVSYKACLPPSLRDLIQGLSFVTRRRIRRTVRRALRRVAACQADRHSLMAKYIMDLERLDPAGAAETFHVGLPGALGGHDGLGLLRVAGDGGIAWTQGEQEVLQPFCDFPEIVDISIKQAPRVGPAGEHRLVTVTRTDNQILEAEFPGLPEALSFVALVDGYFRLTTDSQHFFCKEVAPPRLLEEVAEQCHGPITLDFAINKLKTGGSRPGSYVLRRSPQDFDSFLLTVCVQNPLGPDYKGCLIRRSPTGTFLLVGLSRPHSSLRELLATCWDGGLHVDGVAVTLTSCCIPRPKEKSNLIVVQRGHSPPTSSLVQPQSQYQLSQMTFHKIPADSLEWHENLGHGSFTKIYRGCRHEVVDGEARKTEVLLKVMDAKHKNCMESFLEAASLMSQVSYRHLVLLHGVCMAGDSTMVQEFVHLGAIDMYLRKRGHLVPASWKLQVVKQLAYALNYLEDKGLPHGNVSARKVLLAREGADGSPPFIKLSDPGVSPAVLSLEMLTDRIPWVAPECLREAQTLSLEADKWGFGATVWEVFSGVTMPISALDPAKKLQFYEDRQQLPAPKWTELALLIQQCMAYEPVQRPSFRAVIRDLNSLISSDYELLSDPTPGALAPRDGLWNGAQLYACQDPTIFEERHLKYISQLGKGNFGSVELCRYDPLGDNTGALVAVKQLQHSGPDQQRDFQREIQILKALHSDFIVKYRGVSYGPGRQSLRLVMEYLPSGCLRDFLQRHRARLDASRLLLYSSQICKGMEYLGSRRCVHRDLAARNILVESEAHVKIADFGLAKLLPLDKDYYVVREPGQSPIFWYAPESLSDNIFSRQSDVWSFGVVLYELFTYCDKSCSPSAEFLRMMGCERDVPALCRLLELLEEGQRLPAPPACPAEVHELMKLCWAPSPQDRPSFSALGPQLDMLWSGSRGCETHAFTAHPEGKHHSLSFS

[2] = biological target: T4, TYK2 JH2 pseudokinase domain (Homo sapiens, UniProt P29597); assay: KdELECT competition binding assay, TYK2 JH2; conditions: isolated TYK2 JH2 domain
T4 construct: purchased Eurofins DiscoverX Corporation (contract assay)
Description: as §1

Sequence of CYP450 2D6 (P10635 whole entry, the tested form may be a part): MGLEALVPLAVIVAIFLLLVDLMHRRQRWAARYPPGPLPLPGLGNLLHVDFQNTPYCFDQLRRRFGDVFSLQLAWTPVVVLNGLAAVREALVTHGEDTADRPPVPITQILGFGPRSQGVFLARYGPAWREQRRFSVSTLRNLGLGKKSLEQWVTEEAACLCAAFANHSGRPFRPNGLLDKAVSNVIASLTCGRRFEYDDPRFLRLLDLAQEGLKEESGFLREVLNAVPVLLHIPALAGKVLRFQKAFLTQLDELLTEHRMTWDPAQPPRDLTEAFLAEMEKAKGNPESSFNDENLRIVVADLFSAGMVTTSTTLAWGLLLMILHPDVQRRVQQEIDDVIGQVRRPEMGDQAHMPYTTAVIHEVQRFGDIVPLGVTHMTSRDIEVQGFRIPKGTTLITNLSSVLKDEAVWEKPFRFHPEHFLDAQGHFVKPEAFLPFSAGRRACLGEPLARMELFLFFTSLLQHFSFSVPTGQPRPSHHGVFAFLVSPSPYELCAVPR
T4 sequence (P29597 589-875 limits assumed): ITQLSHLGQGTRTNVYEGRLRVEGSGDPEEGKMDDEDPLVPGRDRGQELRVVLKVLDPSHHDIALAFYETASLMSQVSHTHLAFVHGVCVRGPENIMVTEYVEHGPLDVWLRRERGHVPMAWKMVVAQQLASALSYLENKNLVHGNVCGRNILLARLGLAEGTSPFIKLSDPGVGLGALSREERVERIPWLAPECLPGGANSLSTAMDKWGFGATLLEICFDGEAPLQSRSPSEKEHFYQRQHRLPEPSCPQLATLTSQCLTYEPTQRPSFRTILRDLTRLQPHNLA
Sequence of JAK2 (O60674 whole entry): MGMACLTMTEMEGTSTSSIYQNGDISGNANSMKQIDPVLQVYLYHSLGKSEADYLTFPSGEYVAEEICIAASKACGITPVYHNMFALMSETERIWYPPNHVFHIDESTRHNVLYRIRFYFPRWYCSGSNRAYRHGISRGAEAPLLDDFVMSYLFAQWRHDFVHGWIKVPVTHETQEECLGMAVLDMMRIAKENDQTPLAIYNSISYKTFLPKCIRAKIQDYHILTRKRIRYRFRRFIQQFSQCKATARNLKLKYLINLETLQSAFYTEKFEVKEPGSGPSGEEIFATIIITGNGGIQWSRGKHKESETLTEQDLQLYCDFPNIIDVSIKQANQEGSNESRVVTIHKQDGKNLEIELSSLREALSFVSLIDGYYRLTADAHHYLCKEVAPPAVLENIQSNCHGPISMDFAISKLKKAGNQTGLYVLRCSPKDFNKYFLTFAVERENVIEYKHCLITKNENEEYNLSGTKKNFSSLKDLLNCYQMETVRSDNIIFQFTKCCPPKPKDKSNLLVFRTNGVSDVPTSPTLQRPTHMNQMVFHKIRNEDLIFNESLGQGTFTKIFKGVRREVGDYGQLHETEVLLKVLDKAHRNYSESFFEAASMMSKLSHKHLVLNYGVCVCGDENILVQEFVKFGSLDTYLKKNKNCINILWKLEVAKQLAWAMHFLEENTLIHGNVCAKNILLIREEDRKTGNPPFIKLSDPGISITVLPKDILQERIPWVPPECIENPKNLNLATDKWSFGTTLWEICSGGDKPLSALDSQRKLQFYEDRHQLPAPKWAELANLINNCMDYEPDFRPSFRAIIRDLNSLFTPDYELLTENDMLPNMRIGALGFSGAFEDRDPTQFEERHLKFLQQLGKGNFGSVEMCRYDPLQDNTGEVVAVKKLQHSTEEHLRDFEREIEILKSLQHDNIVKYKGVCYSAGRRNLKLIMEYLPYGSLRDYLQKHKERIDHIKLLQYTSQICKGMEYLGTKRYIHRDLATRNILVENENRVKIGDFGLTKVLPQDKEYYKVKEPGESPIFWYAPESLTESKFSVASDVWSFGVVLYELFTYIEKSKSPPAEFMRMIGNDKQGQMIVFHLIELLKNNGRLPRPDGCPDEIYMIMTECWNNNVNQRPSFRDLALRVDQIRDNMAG
Sequence of JAK1 (P23458 whole entry): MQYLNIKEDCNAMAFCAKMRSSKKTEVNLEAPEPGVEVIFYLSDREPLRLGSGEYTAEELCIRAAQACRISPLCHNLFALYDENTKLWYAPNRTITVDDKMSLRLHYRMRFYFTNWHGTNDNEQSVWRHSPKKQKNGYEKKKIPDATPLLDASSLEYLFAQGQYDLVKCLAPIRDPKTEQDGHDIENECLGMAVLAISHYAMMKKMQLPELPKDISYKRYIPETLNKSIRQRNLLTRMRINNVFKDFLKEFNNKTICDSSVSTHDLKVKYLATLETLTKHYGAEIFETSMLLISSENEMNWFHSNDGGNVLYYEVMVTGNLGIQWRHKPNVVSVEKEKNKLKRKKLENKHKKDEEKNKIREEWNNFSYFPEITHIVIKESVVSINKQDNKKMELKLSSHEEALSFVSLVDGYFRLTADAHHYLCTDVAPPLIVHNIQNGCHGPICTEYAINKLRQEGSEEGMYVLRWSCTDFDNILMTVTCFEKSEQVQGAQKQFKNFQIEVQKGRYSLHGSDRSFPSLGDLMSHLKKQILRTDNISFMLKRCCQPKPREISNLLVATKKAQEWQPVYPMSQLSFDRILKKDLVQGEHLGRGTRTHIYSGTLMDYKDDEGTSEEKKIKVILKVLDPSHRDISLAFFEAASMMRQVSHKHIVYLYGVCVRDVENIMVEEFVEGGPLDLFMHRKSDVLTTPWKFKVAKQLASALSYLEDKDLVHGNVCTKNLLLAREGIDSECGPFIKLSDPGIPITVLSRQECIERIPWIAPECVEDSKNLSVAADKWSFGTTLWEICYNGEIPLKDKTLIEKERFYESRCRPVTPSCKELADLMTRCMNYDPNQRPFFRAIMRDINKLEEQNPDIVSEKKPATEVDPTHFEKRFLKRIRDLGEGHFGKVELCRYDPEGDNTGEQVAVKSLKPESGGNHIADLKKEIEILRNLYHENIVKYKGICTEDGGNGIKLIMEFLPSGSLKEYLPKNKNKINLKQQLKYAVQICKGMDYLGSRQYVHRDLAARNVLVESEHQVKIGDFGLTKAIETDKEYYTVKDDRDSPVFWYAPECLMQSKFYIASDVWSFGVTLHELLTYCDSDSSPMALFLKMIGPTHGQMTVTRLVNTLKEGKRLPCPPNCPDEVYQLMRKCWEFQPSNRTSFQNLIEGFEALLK

Row | SMILES | IC50 (JAK2) | IC50 [1] | IC50 (JAK1) | IC50 (CYP450 2D6) | Kd (TYK2 JH1 kinase domain) | fraction unbound (PPB, H) | half-life (LM T1/2, M) | Kd (JAK3 JH1 kinase domain) | IC50 (JAK3) | Kd [2]
1 | CNC(=O)c1nnc(NC(=O)N2CCC2)cc1Nc1cccc(-c2ncn(C)n2)c1OC [SHR8751] | > 10 µM | 0.048 µM | > 10 µM | > 30 µM | > 20 µM | 0.402 | > 139 min | 3.7 ± 0.07 µM | > 10 µM | 0.032 nM
2 | CNC(=O)c1nnc(NC(=O)C2CC2)c2[nH]c(-c3ccc(N)cc3OC)cc12 [SHR2396] | > 10 µM | 0.0097 µM | > 10 µM | > 30 µM | 0.3 µM | 0.0258 | 31 min | > 20 µM | > 10 µM | 0.029 nM and 0.019 nM
3 | [2H]C([2H])([2H])NC(=O)c1nnc(NC(=O)N2CCC2)cc1Nc1cccc(-c2ncn(C)n2)c1OC [SHR9332] | > 10 µM | 0.055 µM | > 10 µM | > 30 µM | > 20 µM | 0.274 | 49.8 min | 4.5 µM | > 10 µM | 0.04 nM
